Experimental data: ChEMBL document CHEMBL3272192, “Thyroxine analogues. 23. Quantitative structure-activity correlation studies of in vivo and in vitro thyromimetic activities” (1977)

Legend:
[1] = system: Rattus norvegicus; test: In vivo antigoiter activity in rat; assay type: functional
[2] = species on record: Rattus norvegicus; test: Displacement of radiolabelled L-T3 from thyroid hormone receptor in intact rat hepatic nuclei relative to T3
[3] = target: T1, Thyroxine-binding globulin (Homo sapiens) (UniProt P05543); test: Binding affinity to thyroxine binding globulin (unknown origin) relative to T4
T1 sequence (whole entry): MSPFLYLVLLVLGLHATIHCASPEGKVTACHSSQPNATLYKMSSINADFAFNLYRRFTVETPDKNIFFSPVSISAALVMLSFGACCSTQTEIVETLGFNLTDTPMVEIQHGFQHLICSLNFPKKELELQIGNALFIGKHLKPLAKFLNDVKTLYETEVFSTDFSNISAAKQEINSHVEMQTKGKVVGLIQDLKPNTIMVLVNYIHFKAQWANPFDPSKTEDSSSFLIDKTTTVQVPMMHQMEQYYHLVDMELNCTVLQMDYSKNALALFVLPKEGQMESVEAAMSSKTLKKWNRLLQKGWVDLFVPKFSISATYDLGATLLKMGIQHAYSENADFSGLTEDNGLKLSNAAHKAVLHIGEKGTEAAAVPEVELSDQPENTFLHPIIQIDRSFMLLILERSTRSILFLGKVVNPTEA

| Compound | Activity [1] [%] | log(%) [1] | RBA [2] [%] | log(%) [2] | RBA [3] [%] | log(%) [3] |
| --- | --- | --- | --- | --- | --- | --- |
| NC(Cc1cc(I)c(Oc2cccc(Br)c2)c(I)c1)C(=O)O (centres undefined) | 18 | 1.225 |  |  |  |  |
| Cc1cc(Oc2c(I)cc(CC(N)C(=O)O)cc2I)ccc1O (centres undefined) | 14.47 | 1.16 | 13.5 | 1.13 | 0.28 | -0.553 |
| Cc1cc(CC(N)C(=O)O)cc(I)c1Oc1ccc(O)cc1 (centres undefined) | 0.093 | -1.032 |  |  |  |  |
| CCCc1cc(Oc2c(C)cc(CC(N)C(=O)O)cc2C)ccc1O (centres undefined) | 2.36 | 0.373 |  |  |  |  |
| NC(Cc1cc(Br)c(Oc2cc(Br)c(O)c(I)c2)c(I)c1)C(=O)O (centres undefined) | 2.83 | 0.452 |  |  |  |  |
| CCC(C)c1cc(Oc2c(C)cc(CC(N)C(=O)O)cc2C)ccc1O (centres undefined) | 2.91 | 0.464 |  |  |  |  |
| Cc1c(O)ccc(Oc2c(I)cc(CC(N)C(=O)O)cc2I)c1C (centres undefined) | 9.04 | 0.956 | 1.1 | 0.041 |  |  |
| Cc1cc(CC(N)C(=O)O)cc(C)c1Oc1ccc(O)c(C(C)C)c1 (centres undefined) | 3.6 | 0.556 | 0.7 | -0.155 |  |  |
| Cc1cc(Oc2c(I)cc(CC(N)C(=O)O)cc2I)c(C)cc1O (centres undefined) | 0.18 | -0.745 | 0.1 | -1 |  |  |
| Cc1cc(Oc2c(C)cc(CC(N)C(=O)O)cc2C)ccc1O (centres undefined) | 0.54 | -0.268 | 0.1 | -1 |  |  |
| NC(Cc1cc(I)c(Oc2ccc(O)cc2)c(I)c1)C(=O)O (centres undefined) | 0.81 | -0.092 | 0.3 | -0.523 | 0.07 | -1.16 |
| Cc1cc(Oc2c(I)cc(CC(N)C(=O)O)cc2I)ccc1N (centres undefined) | 0.036 | -1.444 |  |  |  |  |
| NC(Cc1cc(I)c(Cc2ccc(O)c(I)c2)c(I)c1)C(=O)O (centres undefined) | 54.25 | 1.734 | 250 | 2.4 |  |  |
| Cc1cc(CC(N)C(=O)O)cc(I)c1Oc1ccc(O)c(I)c1 (centres undefined) | 6.24 | 0.795 |  |  |  |  |
| NC(Cc1cc(I)c(Oc2ccc(O)c(C3CCCCC3)c2)c(I)c1)C(=O)O (centres undefined) |  |  | 1.4 | 0.146 |  |  |
| NC(Cc1cc(I)c(Cc2cc(I)c(O)c(I)c2)c(I)c1)C(=O)O (centres undefined) |  |  | 2.6 | 0.415 |  |  |
| NC(Cc1cc(I)c(Sc2ccc(O)c(I)c2)c(I)c1)C(=O)O (centres undefined) | 13.82 | 1.14 | 100 | 2 |  |  |
| NC(Cc1cc(I)c(Oc2ccc(O)c(F)c2)c(I)c1)C(=O)O (centres undefined) | 0.65 | -0.785 |  |  |  |  |
| NC(Cc1cc(I)c(Oc2ccc(O)c(-c3ccccc3)c2)c(I)c1)C(=O)O (centres undefined) | 2.03 | 0.308 | 2 | 0.301 | 0.04 | -1.4 |
| NC(Cc1cc(I)c(Oc2cc(I)c(O)c(I)c2)c(I)c1)C(=O)O (centres undefined) [THYROXINE] | 18.1 | 1.258 | 12.5 | 1.1 | 100 | 2 |
| NC(Cc1cc(I)c(Oc2ccc(O)c(O)c2)c(I)c1)C(=O)O (centres undefined) | 0.27 | -0.569 |  |  | 0.06 | -1.22 |
| NC(Cc1cc(I)c(Oc2ccc(O)c(Cl)c2)c(I)c1)C(=O)O (centres undefined) | 4.88 | 0.688 | 6.2 | 0.792 |  |  |

| Compound | Activity [1] [%] | log(%) [1] | RBA [2] [%] | log(%) [2] | RBA [3] [%] | log(%) [3] |
| --- | --- | --- | --- | --- | --- | --- |
| CC(C)c1cc(Oc2c(I)cc(CC(N)C(=O)O)cc2I)ccc1O (centres undefined) | 142.1 | 2.153 | 100 | 2 | 3.53 | 0.548 |
| COc1ccc(Oc2c(I)cc(CC(N)C(=O)O)cc2I)cc1C(C)(C)C (centres undefined) | 2.35 | 0.371 |  |  |  |  |
| NC(Cc1cc(Cl)c(Oc2cc(Cl)c(O)c(I)c2)c(I)c1)C(=O)O (centres undefined) | 2.27 | 0.356 |  |  |  |  |
| CC(C)c1cc(CC(N)C(=O)O)cc(C(C)C)c1Oc1ccc(O)c(I)c1 (centres undefined) |  |  | 0.2 |  |  |  |
| N[C@@H](Cc1cc(I)c(Oc2ccc(O)c(I)c2)c(I)c1)C(=O)O [LIOTHYRONINE] | 100 | 2 |  |  | 9 | 0.954 |
| Cc1cc(Oc2c(I)cc(CC(N)C(=O)O)cc2I)cc(C)c1N (centres undefined) | 0.31 | -0.886 |  |  |  |  |
| NC(Cc1cc(I)c(Oc2cc(F)c(O)c(F)c2)c(I)c1)C(=O)O (centres undefined) | 0.43 | -0.366 |  |  |  |  |
| Nc1ccc(Oc2c(I)cc(CC(N)C(=O)O)cc2I)cc1 (centres undefined) | 0.27 | -0.569 | 0.76 | -0.119 |  |  |
| CCCc1cc(Oc2c(I)cc(CC(N)C(=O)O)cc2I)ccc1O (centres undefined) | 39.5 | 1.597 |  |  |  |  |
| NC(Cc1cc(I)c(Oc2cccc(C(F)(F)F)c2)c(I)c1)C(=O)O (centres undefined) | 13.56 | 1.132 | 0.2 | -0.699 |  |  |
| NC(Cc1cc(I)c(Oc2ccc(O)c3ccccc23)c(I)c1)C(=O)O (centres undefined) |  |  | 8 | 0.903 |  |  |
| NC(Cc1cc(Br)c(Oc2cc(Br)c(O)c(Br)c2)c(Br)c1)C(=O)O (centres undefined) | 0.065 | -1.187 |  |  |  |  |
| NC(Cc1cc(I)c(Oc2ccc(O)c3c2CCCC3)c(I)c1)C(=O)O (centres undefined) | 18.08 | 1.257 | 8 | 0.903 |  |  |
| NC(Cc1cc(Br)c(Oc2cc(I)c(O)c(I)c2)c(Br)c1)C(=O)O (centres undefined) | 1.97 | 0.294 |  |  |  |  |
| NC(Cc1cc(Br)c(Oc2ccc(O)c(Br)c2)c(Br)c1)C(=O)O (centres undefined) | 4.63 | 0.666 |  |  |  |  |
| NC(Cc1ccc(Oc2cc(I)c(O)c(I)c2)c(I)c1)C(=O)O (centres undefined) [REVERSETRIIODOTHYRONINE] | 0.125 | -0.903 | 0.1 | -1 |  |  |
| NC(Cc1cc(I)c(Sc2ccc(O)cc2)c(I)c1)C(=O)O (centres undefined) |  |  | 1.3 | 0.114 |  |  |
| NC(Cc1cc(Cl)c(Oc2ccc(O)c(Cl)c2)c(Cl)c1)C(=O)O (centres undefined) | 0.091 | -1.041 |  |  |  |  |
| Cc1cc(C)cc(Oc2c(I)cc(CC(N)C(=O)O)cc2I)c1 (centres undefined) | 0.054 | -0.839 |  |  |  |  |
| COc1ccc(Oc2c(I)cc(CC(N)C(=O)O)cc2I)cc1C(C)C (centres undefined) | 19 | 1.279 |  |  |  |  |
| NC(Cc1cc(I)c(Oc2cc(Br)c(O)c(Br)c2)c(I)c1)C(=O)O (centres undefined) | 1.58 | 0.199 |  |  |  |  |
| NC(Cc1ccc(Oc2ccc(O)c(I)c2)c(I)c1)C(=O)O (centres undefined) [DIIODOTHYRONINE] | 0.056 | -1.252 | 0.5 | -0.301 |  |  |

| Compound | Activity [1] [%] | log(%) [1] | RBA [2] [%] | log(%) [2] | RBA [3] [%] | log(%) [3] |
| --- | --- | --- | --- | --- | --- | --- |
| NC(Cc1cc(I)c(Oc2cc(Cl)c(O)c(Cl)c2)c(I)c1)C(=O)O (centres undefined) | 3.8 | 0.58 | 4.5 | 0.653 |  |  |
| NC(Cc1cc(Br)c(Oc2ccc(O)c(I)c2)c(I)c1)C(=O)O (centres undefined) | 71.98 | 1.857 | 1.4 | 0.146 |  |  |
| CC(C)c1cc(Oc2c(I)cc(CC(N)C(=O)O)cc2I)cc(C(C)C)c1O (centres undefined) |  |  | 1.4 | 0.146 |  |  |
| NC(Cc1cc(I)c(Oc2cccc(Cl)c2)c(I)c1)C(=O)O (centres undefined) | 7.78 | 0.891 |  |  |  |  |
| Cc1cc(CC(N)C(=O)O)cc(C)c1Oc1ccc(O)c(I)c1 (centres undefined) | 0.9 | -0.046 |  |  |  |  |
| NC(Cc1cc(I)c(Oc2ccc(O)c(Br)c2)c(I)c1)C(=O)O (centres undefined) | 23.78 | 1.376 |  |  |  |  |
| NC(Cc1cc(Br)c(Oc2ccc(O)c(I)c2)c(Br)c1)C(=O)O (centres undefined) | 16.87 | 1.227 |  |  |  |  |
| NC(Cc1cc(I)c(Oc2cccc(F)c2)c(I)c1)C(=O)O (centres undefined) | 1.39 | 0.143 |  |  |  |  |
| CCC(C)c1cc(Oc2c(I)cc(CC(N)C(=O)O)cc2I)ccc1O (centres undefined) | 79.9 | 1.902 |  |  |  |  |
| CC(C)c1cc(Oc2c(Br)cc(CC(N)C(=O)O)cc2Br)ccc1O (centres undefined) | 30 | 1.477 | 36 | 1.56 |  |  |
| CC(C)c1cc(Oc2c(I)cc(CC(N)C(=O)O)cc2I)cc(I)c1O (centres undefined) | 55.36 | 1.743 |  |  |  |  |
| Cc1cc(CC(N)C(=O)O)ccc1Oc1ccc(O)c(I)c1 (centres undefined) | 0.12 | -0.921 |  |  |  |  |
| Cc1cc(O)c(I)cc1Oc1c(I)cc(CC(N)C(=O)O)cc1I (centres undefined) | 0.36 | -0.444 | 0.3 | -0.523 |  |  |
| Cc1cccc(Oc2c(I)cc(CC(N)C(=O)O)cc2I)c1 (centres undefined) | 2.71 | 0.433 | 0.2 | -0.699 |  |  |
| NC(Cc1cc(I)c(Oc2cc(F)c(O)c(I)c2)c(I)c1)C(=O)O (centres undefined) | 6.03 | 0.78 |  |  |  |  |
| NC(Cc1cc(I)c(Oc2cccc(I)c2)c(I)c1)C(=O)O (centres undefined) | 27.12 | 1.433 | 0.4 | -0.398 |  |  |
| Cc1cc(Oc2c(C)cc(CC(N)C(=O)O)cc2C)cc(C)c1O (centres undefined) | 0.36 | -0.444 | 0.1 | -1 |  |  |
| NC(Cc1cc(I)c(Oc2ccccc2)c(I)c1)C(=O)O (centres undefined) | 1.24 | 0.093 |  |  |  |  |
| COc1ccc(Oc2c(I)cc(CC(N)C(=O)O)cc2I)cc1I (centres undefined) | 11.25 | 1.051 |  |  |  |  |
| NC(Cc1cc(I)c(Oc2ccc(O)c([N+](=O)[O-])c2)c(I)c1)C(=O)O (centres undefined) | 0.18 | -0.745 |  |  |  |  |
